# Measured values as given in US7655657B2, “Fused bicycloheterocycle substituted quinuclidine derivatives” (Abbott Laboratories, priority 2003, dated 2010).
# Where a name gives a salt, the structure may show the parent alone. Read-outs that look alike come from different tables or passages of the source.
# What was measured:
# α7 nAChRs = target: T1, α7 nAChRs (Rattus norvegicus, UniProt Q05941); test: [3H]-methyllycaconitine (MLA) binding assay
# T1 construct: Membrane enriched fractions from rat brain minus cerebellum; tissue ABS Inc., Wilmington, Del; host or cells: rat brain minus cerebellum
# Experimental: To determine the effectiveness of representative compounds of this invention as α7 nAChRs, the compounds of the invention were evaluated according to the [3H]-methyllycaconitine (MLA) binding assay and considering the [^3H]-cytisine binding assay, which were performed as described below.
# [^3H]-Methyllycaconitine (MLA) Binding
# Binding conditions were similar to those for [^3H]-cytisine binding. Membrane enriched fractions from rat brain minus cerebellum (ABS Inc., Wilmington, Del.) were slowly thawed at 4° C., washed and resuspended in 30 volumes of BSS-Tris buffer (120 mM NaCl, 5 mM KCl, 2 mM CaCl2, 2 mM MgCl2, and 50 mM Tris-Cl, pH 7.4, 22° C.). Samples containing 100-200 μg of protein, 5 nM [^3H]-MLA (25 Ci/mmol; Perkin Elmer/NEN Life Science Products, Boston, Mass.) and 0.1% bovine serum albumin (BSA, Millipore, Bedford, Mass.) were incubated in a final volume of 500 μL for 60 minutes at 22° C. Seven log-dilution concentrations of each compound were tested in duplicate. Non-specific binding was determined in the presence of 10 μM MLA. Bound radioactivity was isolated by vacuum filtration onto glass fiber filter plates prewetted with 2% BSA using a 96-well filtration apparatus (Packard Instruments, Meriden, Conn.) and were then rapidly rinsed with 2 mL of ice-cold BSS. Packard MicroScint-20® scintillation cocktail (40 μL) was added to each well and radioactivity was determined using a Packard TopCount® instrument. The IC50 values were determined by nonlinear regression in Microsoft Excel® software. Ki values were calculated from the IC50s using the Cheng-Prusoff equation, where Ki=IC50/1+[Ligand]/KD].
# hERG ion channel = hERG ion channel (Homo sapiens, UniProt Q12809); test: [3H]-dofetilide binding to membranes from HERG-transfected HEK cells; details: for selectivity ratio at 45 min: human, membrane preparations from HERG-transfected HEK cells, pH 7.4, probe [3H]-dofetilide
# Experimental: Membrane aliquots were thawed and homogenized again in a glass Dounce homogenizer (approximately 10 passes). Test compounds were diluted (6 concentrations at half-log intervals) from DMSO stock solutions in assay buffer (135 mM NaCl, 5 mM KCl, 0.8 mM MgCl2, 10 mM HEPES, 10 mM glucose, 1 mM EGTA, 0.01% BSA, pH 7.4), and tested in duplicate at each concentration. The following were added to each 200 μl well of a 96-well polystyrene plate (Packard Optiplate, cat. # 6005290): 20 μl of assay binding buffer (for total bounds), or 1 μM astemizole (for non-specific bounds), or test compound, 50 μl of [^3H]-dofetilide, and 130 μl of membrane homogenate (final protein concentration=30 μg per well). The plates were incubated at room temperature for 45 m, aspirated onto GF/B filter plates, and washed with 2 ml of cold wash buffer. The radioactivity was counted in a Packard Topcount Scintillation Counter after addition of 50 μl of scintillant (Packard Microscint-20, cat. # 6013621). The data were analyzed with a four-parameter logistic equation (PRISM™, Graphpad or Assay Explorer™, MDL). Ki values were derived by means of the Cheng and Prusoff (1973) equation (Ki=IC50/1+[ligand]/Kd) using Kd values for [^3H]-dofetilide obtained from previously performed saturation assays (Diaz et al., 2004). […] Each Ki represents an average of at least two independent determinations.
# Thus, binding affinities to the hERG channel were expressed in Ki value, i.e. Ki hERG.
# [1] = rat brain minus cerebellum membranes, 5 nM [3H]-MLA, read-out: α7 binding [3H]MLA Ki
# Sequence of hERG ion channel (Q12809 whole entry): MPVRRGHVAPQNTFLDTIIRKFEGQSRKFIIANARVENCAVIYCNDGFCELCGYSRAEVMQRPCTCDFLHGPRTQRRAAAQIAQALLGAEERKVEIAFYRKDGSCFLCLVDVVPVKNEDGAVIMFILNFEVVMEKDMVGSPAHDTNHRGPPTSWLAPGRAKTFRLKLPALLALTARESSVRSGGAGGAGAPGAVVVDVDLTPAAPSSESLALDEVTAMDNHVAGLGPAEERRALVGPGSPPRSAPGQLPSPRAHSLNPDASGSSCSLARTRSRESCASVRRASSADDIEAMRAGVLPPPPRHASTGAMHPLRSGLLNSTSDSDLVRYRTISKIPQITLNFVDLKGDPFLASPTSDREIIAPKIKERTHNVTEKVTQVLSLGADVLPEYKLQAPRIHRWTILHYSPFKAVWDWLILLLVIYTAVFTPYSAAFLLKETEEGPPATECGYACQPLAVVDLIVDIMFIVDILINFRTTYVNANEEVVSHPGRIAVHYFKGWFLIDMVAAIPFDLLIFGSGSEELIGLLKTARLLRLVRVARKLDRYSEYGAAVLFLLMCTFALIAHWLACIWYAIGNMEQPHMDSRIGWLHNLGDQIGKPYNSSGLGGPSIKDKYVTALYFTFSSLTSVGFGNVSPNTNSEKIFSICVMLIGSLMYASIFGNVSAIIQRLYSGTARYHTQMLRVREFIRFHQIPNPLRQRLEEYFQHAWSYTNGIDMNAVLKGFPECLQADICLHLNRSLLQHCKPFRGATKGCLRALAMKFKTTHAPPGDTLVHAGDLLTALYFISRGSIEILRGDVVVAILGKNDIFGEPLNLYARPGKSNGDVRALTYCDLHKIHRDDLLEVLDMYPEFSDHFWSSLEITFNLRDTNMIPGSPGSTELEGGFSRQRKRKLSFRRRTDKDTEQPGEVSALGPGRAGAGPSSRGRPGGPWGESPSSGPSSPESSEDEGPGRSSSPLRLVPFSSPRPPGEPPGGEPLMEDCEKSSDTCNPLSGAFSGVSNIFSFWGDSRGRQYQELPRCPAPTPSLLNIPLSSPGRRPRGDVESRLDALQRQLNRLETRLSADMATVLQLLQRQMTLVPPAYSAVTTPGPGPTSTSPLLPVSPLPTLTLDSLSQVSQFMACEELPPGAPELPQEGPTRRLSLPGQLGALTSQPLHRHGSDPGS
# T1 sequence (Q05941 23-502): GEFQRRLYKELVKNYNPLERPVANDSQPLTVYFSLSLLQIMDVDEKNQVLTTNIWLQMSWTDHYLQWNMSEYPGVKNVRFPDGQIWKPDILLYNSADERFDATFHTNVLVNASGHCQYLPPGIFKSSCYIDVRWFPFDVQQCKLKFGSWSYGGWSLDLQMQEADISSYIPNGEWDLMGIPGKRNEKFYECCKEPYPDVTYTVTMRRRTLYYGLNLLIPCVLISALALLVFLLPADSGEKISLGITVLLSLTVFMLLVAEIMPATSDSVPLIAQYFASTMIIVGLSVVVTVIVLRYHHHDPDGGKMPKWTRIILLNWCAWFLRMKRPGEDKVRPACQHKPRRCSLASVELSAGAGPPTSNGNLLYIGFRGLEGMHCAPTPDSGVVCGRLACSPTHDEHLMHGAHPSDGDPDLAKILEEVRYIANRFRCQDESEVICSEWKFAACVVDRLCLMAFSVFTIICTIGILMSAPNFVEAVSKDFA
SMILES,Ki (α7 nAChRs; [1]),Ki (hERG ion channel),selectivity ratio at 45 min (hERG ion channel),Ki (α7 nAChRs)
"c1cc2cc(-c3ccc(O[C@H]4CN5CCC4CC5)nn3)ccc2o1 [B, (R)-3-[6-(Benzofuran-5-yl)-pyridazin-3-yloxy]-1-aza-bicyclo[2.2.2]octane trifluoroacetate, reference compound]",142 nM,4090 nM,29,
"c1cc(-c2cnc(O[C@H]3CN4CCC3CC4)nc2)c2cc[nH]c2c1 [Example 12, 4-{2-[(3R)-1-Azabicyclo[2.2.2]oct-3-yloxy]pyrimidin-5-yl}-1H-indole]",,8830 nM,516,17.1 nM
"c1ccc2cc(-c3ccc(O[C@H]4CN5CCC4CC5)nn3)ccc2c1 [Example A, (R)-3-(6-Naphthalen-2-yl-pyridazin-3-yloxy)-1-aza-bicyclo[2.2.2]octane trifluoroacetate, reference compound]",78.9 nM,838 nM,11,
"Cc1c[nH]c2ccc(-c3ccc(O[C@H]4CN5CCC4CC5)nn3)cc12 [Example 10, 5-{6-[(3R)-1-Azabicyclo[2.2.2]oct-3-yloxy]pyridazin-3-yl}-3-methyl-1H-indole]",,5200 nM,1680,3.1 nM
"c1cc2cc(-c3ccc(O[C@H]4CN5CCC4CC5)nn3)ccc2[nH]1 [Example 9, 5-{6-[(3R)-1-Azabicyclo[2.2.2]oct-3-yloxy]pyridazin-3-yl}-1H-indole]",6.7 nM,10900 nM,1620,
"Nc1nc2ccc(-c3ccc(O[C@H]4CN5CCC4CC5)cc3)cc2s1 [Example 16, 6-{4-[(3R)-1-Azabicyclo[2.2.2]oct-3-yloxy]phenyl}-1,3-benzothiazol-2-amine]",,1510 nM,888,1.7 nM
"c1cc2cc(-c3ccc(O[C@@H]4CN5CCC4CC5)nn3)ccc2[nH]1 [Example 30, (S)-3-[6-(1H-Indol-5-yl)-pyridazin-3-yloxy]-1-aza-bicyclo[2.2.2]octane fumarate]",4.3 nM,12700 nM,2960,
"Cc1n[nH]c2ccc(-c3ccc(O[C@H]4CN5CCC4CC5)nn3)cc12 [Example 20, (R)-3-[6-(3-Methyl-1H-indazol-5-yl)-pyridazin-3-yloxy]-1-aza-bicyclo[2.2.2]octane fumarate]",16.3 nM,13000 nM,797,
"c1ccc2oc(-c3ccc(O[C@H]4CN5CCC4CC5)nn3)cc2c1 [Example C, (R)-3-[6-(Benzofuran-2-yl)-pyridazin-3-yloxy]-1-aza-bicyclo[2.2.2]octane trifluoroacetate, reference compound]",162 nM,392 nM,2,
"c1cc2c(cc1-c1ccc(O[C@H]3CN4CCC3CC4)nn1)CCC2 [E, (R)-3-(6-Indan-5-yl-pyridazin-3-yloxy)-1-aza-bicyclo[2.2.2]octane trifluoroacetate, reference compound]",33.9 nM,1680 nM,50,
"CN(C)Cc1c[nH]c2ccc(-c3ccc(O[C@H]4CN5CCC4CC5)nn3)cc12 [Example 22, (R)-{5-[6-(1-Aza-bicyclo[2.2.2]oct-3-yloxy)-pyridazin-3-yl]-1H-indol-3-ylmethyl}-dimethyl-amine bis(fumarate)]",55.8 nM,37300 nM,669,
"c1cc2cc(-c3ccc(O[C@H]4CN5CCC4CC5)nc3)ccc2[nH]1 [Example 31, (R)-3-[5-(1H-Indol-5-yl)-pyridin-2-yloxy]-1-aza-bicyclo[2.2.2]octane trifluoroacetate]",7.6 nM,2570 nM,339,
"O=C1Cc2cc(-c3ccc(O[C@H]4C[N+]5([O-])CCC4CC5)nn3)ccc2N1 [Example 27, 5-{6-[(3R)-1-Oxy-1-Aza-bicyclo[2.2.2]oct-3-yloxy]-pyridazin-3-yl}-1,3-dihydro-indol-2-one bis(hydrogen chloride)]",13.9 nM,> 50000 nM,> 4000,
"C1=Cc2cc(-c3ccc(O[C@H]4CN5CCC4CC5)nn3)ccc2C1 [D, (R)-3-[6-(1H-Inden-5-yl)-pyridazin-3-yloxy]-1-aza-bicyclo[2.2.2]octane trifluoroacetate, reference compound]",15.7 nM,2090 nM,133,
